Usually IC50 stands for the concentration needed to halve the response being measured.

Data on eleven compounds can be found in patent publication US10160747B2, “Compounds and methods for kinase modulation, and indications therefor” (Plexxikon Inc., priority 2016, dated 2018).

Experiment [1] relates to MOLM-14 F691L (endogenous FLT3 ITD and transfected FLT3 F691L). The experiment in a line: MOLM-14 F691L cell proliferation assay (CellTiter-Glo). The experiment is classed as cell-based. Particulars: Homo sapiens, MOLM-14, 72 h; 3 d growth, GMean. The gist of the method:
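MOLM-14 cells (FLT3 ITD) carrying D835Y or F691L, 1×10^4 cells/well, eight 1:3 dilutions from 1 μM final, 0.2% DMSO, 3 days at 37 °C, 5% CO2. Viability by CellTiter-Glo luminescence (ATP content); IC50 from concentration-response.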

The target in experiment [2] is T1, c-KIT (Homo sapiens, UniProt P10721).
T1 construct: purchased Millipore 14-559K
The experiment in a line: c-KIT recombinant enzyme kinase assay (AlphaScreen). In kind it is biochemical. To be noted: 100 ATP, 8 pt. The procedure, abridged: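 Substrate 30 nM biotin-GG(EEEEY)10EE; ATP 10 μM (FLT3-ITD, FLT3-D835Y) or 100 μM (c-KIT). Detection: AlphaScreen PY20 kit, 10 μg/mL beads, RT 20 + 60 min. Readout 580 nm; IC50.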
(In general: In Alpha technology, singlet oxygen from a donor bead excites a nearby acceptor bead.)

SMILES strings stand for the structures.

T1 sequence (P10721 26-976): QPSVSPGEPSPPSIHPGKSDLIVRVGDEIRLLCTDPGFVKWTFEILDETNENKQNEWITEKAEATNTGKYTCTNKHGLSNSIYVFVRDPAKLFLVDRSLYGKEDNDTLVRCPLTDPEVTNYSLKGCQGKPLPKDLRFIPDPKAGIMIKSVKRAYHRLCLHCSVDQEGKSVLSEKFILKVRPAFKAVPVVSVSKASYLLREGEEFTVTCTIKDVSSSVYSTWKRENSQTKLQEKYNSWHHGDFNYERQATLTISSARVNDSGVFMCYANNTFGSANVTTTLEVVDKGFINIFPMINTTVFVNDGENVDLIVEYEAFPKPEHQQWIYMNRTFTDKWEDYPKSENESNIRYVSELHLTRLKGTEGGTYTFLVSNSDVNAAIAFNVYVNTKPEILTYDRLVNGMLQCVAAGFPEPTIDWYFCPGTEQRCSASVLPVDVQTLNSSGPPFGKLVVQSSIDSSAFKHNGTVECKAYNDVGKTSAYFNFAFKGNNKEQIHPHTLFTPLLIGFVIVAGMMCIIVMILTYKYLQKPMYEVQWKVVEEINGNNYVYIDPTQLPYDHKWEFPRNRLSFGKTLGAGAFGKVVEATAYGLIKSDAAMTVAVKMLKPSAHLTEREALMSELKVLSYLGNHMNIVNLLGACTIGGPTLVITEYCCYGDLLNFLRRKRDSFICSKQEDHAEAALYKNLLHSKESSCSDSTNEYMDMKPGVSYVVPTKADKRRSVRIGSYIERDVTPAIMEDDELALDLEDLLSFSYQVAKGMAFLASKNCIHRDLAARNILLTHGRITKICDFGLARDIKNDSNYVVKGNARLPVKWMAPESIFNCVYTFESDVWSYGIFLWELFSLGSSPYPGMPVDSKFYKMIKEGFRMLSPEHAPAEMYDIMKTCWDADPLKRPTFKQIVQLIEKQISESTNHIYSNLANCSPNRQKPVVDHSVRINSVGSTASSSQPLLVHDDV

Consider `CC(=O)c1c[nH]c2ncc(-c3ccc(CC(=O)Nc4cnc(C)c(C(F)(F)F)c4)c(F)c3)cc12` [Compound P-0063, 2-[4-(3-acetyl-1H-pyrrolo[2,3-b]pyridin-5-yl)-2-fluoro-phenyl]-N-[6-methyl-5-(trifluoromethyl)-3-pyridyl]acetamide], for which the IC50 in experiment [1] and in experiment [2] was 0.0001 to 10 µM each time.
Turning to `Cn1cc(Nc2ncc(-c3ccc(CC(=O)NCc4ccccn4)c(F)c3)cn2)cn1` [Compound P-0088, 2-[2-fluoro-4-[2-[(1-methylpyrazol-4-yl)amino]pyrimidin-5-yl]phenyl]-N-(2-pyridylmethyl)acetamide], the IC50 in experiment [1] and in experiment [2] was 0.0001 to 10 µM each time.
Turning to `Cc1ncc(NC(=O)Cc2ccc(-c3cnc4[nH]cc(F)c4c3)cc2F)cc1C(F)(F)F` [Compound P-0062, 2-[2-fluoro-4-(3-fluoro-1H-pyrrolo[2,3-b]pyridin-5-yl)phenyl]-N-[6-methyl-5-(trifluoromethyl)-3-pyridyl]acetamide], the IC50 in experiment [1] and in experiment [2] was 0.0001 to 10 µM in each case.
Turning to `COc1cncc(NC(=O)Cc2ccc(-c3cnc(Nc4cnn(C)c4)nc3)cc2F)c1` [Compound P-0086, 2-[2-fluoro-4-[2-[(1-methylpyrazol-4-yl)amino]pyrimidin-5-yl]phenyl]-N-(5-methoxy-3-pyridyl)acetamide], the IC50 in experiment [1] and in experiment [2] was 0.0001 to 10 µM each time.
Regarding `COc1ncc(NC(=O)Cc2ccc(-c3cnc(Nc4cnn(C)c4)nc3)cc2F)cc1C(F)(F)F` [Compound P-0089, 2-[2-fluoro-4-[2-[(1-methylpyrazol-4-yl)amino]pyrimidin-5-yl]phenyl]-N-[6-methoxy-5-(trifluoromethyl)-3-pyridyl]acetamide], the IC50 in experiment [1] and in experiment [2] was 0.0001 to 10 µM in each case.
As to `Cn1cc(Nc2ncc(-c3ccc(CC(=O)NCc4ccc(C(F)(F)F)cn4)cc3)cn2)cn1` [Compound P-0162, 2-[4-[2-[(1-methylpyrazol-4-yl)amino]pyrimidin-5-yl]phenyl]-N-[[5-(trifluoromethyl)-2-pyridyl]methyl]acetamide], the IC50 in experiment [1] and in experiment [2] was 0.0001 to 10 µM each time.
Turning to `Cn1cc(Nc2ncc(-c3ccc(CC(=O)NCc4ccc(C(F)(F)F)nc4)c(F)c3)cn2)cn1` [Compound P-0087, 2-[2-fluoro-4-[2-[(1-methylpyrazol-4-yl)amino]pyrimidin-5-yl]phenyl]-N-[[6-(trifluoromethyl)-3-pyridyl]methyl]acetamide], the half-inhibitory concentration (IC50) in experiment [1] and in experiment [2] was 0.0001 to 10 µM in each case.
Regarding `CC(C)(C)c1ccc(NC(=O)Cc2ccc(-c3cnc4[nH]cc(F)c4c3)cc2F)cn1` [Compound P-0043, N-(6-tert-butyl-3-pyridyl)-2-[2-fluoro-4-(3-fluoro-1H-pyrrolo[2,3-b]pyridin-5-yl)phenyl]acetamide], the IC50 in experiment [1] and in experiment [2] was 0.0001 to 10 µM each time.
For the compound `Cc1nn(C)cc1Nc1ncc(-c2ccc(CC(=O)Nc3cnc(C)c(C(F)(F)F)c3)c(F)c2)cn1` [Compound P-0077, 2-[4-[2-[(1,3-dimethylpyrazol-4-yl)amino]pyrimidin-5-yl]-2-fluoro-phenyl]-N-[6-methyl-5-(trifluoromethyl)-3-pyridyl]acetamide], the IC50 in experiment [1] and in experiment [2] was 0.0001 to 10 µM throughout.
For the compound `Cc1ncc(NC(=O)Cc2ccc(-c3cnc(Nc4cnn5ccccc45)nc3)cc2F)cc1C(F)(F)F` [Compound P-0065, 2-(2-fluoro-4-(2-(pyrazolo[1,5-a]pyridin-3-ylamino)pyrimidin-5-yl)phenyl)-N-(6-methyl-5-(trifluoromethyl)pyridin-3-yl)acetamide], the IC50 in experiment [1] and in experiment [2] was 0.0001 to 10 µM throughout.
With `Cc1ncc(NC(=O)Cc2ccc(-c3cnc(Nc4cnn(C)c4C)nc3)cc2F)cc1C(F)(F)F` [Compound P-0076, 2-[4-[2-[(1,5-dimethylpyrazol-4-yl)amino]pyrimidin-5-yl]-2-fluoro-phenyl]-N-[6-methyl-5-(trifluoromethyl)-3-pyridyl]acetamide], the IC50 in experiment [1] and in experiment [2] was 0.0001 to 10 µM each time.
